Key:
[1] = biological target: Serine/threonine-protein kinase B-raf (Homo sapiens) (UniProt P15056); assay: Inhibition of human BRAF at 500 nM by HotSpot assay relative to control
[2] = biological target: T1, Tyrosine-protein kinase Mer (Homo sapiens) (UniProt Q12866); assay: Inhibition of human c-MER at 500 nM by HotSpot assay relative to control
T1 sequence (whole entry): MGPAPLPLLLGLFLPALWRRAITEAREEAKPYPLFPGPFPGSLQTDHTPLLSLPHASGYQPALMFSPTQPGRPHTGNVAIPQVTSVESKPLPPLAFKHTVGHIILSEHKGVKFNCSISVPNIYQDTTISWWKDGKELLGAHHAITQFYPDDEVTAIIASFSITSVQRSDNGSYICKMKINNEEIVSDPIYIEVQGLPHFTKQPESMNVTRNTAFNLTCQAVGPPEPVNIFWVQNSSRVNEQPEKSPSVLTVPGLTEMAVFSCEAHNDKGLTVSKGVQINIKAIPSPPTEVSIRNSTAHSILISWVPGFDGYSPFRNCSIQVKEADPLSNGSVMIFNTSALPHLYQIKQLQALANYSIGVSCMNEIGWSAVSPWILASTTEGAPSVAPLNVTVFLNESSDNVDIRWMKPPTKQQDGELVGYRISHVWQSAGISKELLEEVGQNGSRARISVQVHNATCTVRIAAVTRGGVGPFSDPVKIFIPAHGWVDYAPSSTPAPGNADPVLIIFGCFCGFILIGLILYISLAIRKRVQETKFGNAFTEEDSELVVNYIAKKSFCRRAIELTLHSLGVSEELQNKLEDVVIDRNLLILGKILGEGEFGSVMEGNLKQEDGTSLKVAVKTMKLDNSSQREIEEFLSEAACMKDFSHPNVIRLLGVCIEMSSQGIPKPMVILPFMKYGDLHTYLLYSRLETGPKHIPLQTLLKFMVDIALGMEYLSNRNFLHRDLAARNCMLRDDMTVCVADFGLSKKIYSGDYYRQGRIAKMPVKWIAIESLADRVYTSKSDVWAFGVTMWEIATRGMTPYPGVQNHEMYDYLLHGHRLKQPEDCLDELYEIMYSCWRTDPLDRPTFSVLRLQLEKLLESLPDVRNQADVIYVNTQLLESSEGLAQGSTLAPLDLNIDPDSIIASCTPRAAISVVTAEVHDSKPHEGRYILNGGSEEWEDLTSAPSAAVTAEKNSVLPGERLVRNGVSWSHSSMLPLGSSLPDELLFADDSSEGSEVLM

[3] = biological target: Cyclin-dependent kinase 7/ cyclin H (Homo sapiens) (UniProt P51946+P50613); assay: Inhibition of human CDK7/cyclin H at 500 nM by HotSpot assay relative to control; format: protein-complex assay
[4] = biological target: Receptor tyrosine-protein kinase erbB-4 (Homo sapiens) (UniProt Q15303); assay: Inhibition of human ERBB4 at 500 nM by HotSpot assay relative to control
Chain of Receptor tyrosine-protein kinase erbB-4 (Homo sapiens) (Q15303 whole entry): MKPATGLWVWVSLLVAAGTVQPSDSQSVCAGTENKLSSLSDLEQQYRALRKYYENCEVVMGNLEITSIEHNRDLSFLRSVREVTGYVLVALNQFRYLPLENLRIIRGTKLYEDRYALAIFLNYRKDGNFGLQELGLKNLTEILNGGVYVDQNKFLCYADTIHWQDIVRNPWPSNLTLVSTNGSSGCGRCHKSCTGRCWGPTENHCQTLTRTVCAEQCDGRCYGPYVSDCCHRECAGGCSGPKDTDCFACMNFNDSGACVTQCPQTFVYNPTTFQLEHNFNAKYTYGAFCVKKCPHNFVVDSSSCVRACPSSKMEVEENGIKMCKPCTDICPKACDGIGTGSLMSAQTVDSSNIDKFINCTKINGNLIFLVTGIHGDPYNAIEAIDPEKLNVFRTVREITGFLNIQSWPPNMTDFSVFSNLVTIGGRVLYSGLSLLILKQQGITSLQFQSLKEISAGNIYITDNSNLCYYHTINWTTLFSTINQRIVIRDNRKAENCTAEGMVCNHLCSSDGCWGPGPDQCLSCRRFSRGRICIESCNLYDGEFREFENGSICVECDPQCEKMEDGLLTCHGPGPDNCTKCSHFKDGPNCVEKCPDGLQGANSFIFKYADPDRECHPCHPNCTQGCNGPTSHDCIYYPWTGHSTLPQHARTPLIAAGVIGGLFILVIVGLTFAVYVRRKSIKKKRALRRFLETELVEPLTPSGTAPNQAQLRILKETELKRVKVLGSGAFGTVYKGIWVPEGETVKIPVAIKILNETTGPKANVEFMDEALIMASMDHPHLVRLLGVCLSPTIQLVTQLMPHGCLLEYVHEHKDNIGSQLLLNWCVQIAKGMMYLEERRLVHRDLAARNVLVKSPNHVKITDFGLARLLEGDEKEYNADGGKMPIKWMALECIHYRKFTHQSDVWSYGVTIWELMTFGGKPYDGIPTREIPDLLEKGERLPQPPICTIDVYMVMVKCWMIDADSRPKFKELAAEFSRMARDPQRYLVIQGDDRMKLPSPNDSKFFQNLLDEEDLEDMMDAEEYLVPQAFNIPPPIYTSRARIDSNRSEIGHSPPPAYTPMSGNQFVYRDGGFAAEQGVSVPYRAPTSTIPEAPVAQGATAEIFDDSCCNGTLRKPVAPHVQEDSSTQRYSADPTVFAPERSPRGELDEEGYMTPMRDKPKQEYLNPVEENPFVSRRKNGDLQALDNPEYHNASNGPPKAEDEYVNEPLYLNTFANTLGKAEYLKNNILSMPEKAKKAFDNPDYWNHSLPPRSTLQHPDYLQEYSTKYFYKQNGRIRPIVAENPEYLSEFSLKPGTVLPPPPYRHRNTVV

[5] = biological target: MAP kinase-interacting serine/threonine-protein kinase 1 (Homo sapiens) (UniProt Q9BUB5); assay: Inhibition of human MNK1 at 500 nM by HotSpot assay relative to control
Chain of MAP kinase-interacting serine/threonine-protein kinase 1 (Homo sapiens) (Q9BUB5 whole entry, looked up): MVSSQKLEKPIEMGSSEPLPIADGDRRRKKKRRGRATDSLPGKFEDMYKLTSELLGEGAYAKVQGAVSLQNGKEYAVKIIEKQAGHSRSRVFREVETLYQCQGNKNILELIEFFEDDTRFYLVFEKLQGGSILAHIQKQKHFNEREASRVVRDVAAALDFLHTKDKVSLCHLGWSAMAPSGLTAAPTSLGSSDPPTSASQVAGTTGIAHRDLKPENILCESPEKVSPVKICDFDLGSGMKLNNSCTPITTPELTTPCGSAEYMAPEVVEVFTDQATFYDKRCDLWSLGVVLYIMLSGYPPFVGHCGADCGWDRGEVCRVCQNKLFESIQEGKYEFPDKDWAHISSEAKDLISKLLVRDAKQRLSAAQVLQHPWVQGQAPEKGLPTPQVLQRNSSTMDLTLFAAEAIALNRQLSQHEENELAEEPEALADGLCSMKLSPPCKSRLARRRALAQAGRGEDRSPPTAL

[6] = biological target: Ribosomal protein S6 kinase alpha-5 (Homo sapiens) (UniProt O75582); assay: Inhibition of human RPS6KA5 at 500 nM by HotSpot assay relative to control
[7] = biological target: Phosphorylase b kinase gamma catalytic chain, skeletal muscle/heart isoform (Homo sapiens) (UniProt Q16816); assay: Inhibition of human PHKg1 at 500 nM by HotSpot assay relative to control
Chain of Phosphorylase b kinase gamma catalytic chain, skeletal muscle/heart isoform (Homo sapiens) (Q16816 whole entry, looked up, canonical isoform): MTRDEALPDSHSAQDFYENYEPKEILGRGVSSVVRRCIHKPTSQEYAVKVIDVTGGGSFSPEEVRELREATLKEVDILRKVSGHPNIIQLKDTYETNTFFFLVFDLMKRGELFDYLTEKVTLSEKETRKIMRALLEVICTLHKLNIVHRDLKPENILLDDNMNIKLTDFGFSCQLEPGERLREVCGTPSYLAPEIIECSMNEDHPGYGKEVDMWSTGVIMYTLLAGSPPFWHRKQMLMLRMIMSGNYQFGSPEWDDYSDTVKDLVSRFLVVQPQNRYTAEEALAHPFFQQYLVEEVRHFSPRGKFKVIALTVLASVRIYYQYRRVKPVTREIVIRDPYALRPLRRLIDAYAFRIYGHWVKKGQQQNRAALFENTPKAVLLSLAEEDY

[8] = biological target: Ribosomal protein S6 kinase alpha-3 (Homo sapiens) (UniProt P51812); assay: Inhibition of human RSK2 at 500 nM by HotSpot assay relative to control
Chain of Ribosomal protein S6 kinase alpha-3 (Homo sapiens) (P51812 whole entry): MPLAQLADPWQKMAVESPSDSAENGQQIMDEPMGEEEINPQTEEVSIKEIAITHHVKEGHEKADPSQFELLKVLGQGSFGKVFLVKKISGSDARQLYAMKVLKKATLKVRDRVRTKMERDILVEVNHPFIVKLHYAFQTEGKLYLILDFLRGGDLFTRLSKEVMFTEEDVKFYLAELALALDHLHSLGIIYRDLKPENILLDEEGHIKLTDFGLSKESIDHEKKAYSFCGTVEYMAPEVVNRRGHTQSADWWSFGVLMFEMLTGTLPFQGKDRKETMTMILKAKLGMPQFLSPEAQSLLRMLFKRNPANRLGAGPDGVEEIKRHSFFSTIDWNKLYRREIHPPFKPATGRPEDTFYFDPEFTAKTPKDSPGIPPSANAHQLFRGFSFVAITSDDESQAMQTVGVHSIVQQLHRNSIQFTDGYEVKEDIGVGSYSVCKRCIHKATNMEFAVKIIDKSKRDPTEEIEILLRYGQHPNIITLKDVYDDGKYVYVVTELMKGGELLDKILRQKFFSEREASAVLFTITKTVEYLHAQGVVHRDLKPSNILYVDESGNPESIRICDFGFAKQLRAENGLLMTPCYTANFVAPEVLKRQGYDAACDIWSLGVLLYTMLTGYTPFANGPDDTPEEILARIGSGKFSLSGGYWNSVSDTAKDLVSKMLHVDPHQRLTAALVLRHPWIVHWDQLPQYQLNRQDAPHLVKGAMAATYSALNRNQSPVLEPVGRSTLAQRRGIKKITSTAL

[9] = biological target: Ribosomal protein S6 kinase alpha-2 (Homo sapiens) (UniProt Q15349); assay: Inhibition of human RSK3 at 500 nM by HotSpot assay relative to control
[10] = biological target: T2, Serine/threonine-protein kinase TAO3 (Homo sapiens) (UniProt Q9H2K8); assay: Inhibition of human JIK at 500 nM by HotSpot assay relative to control
T2 sequence (whole entry): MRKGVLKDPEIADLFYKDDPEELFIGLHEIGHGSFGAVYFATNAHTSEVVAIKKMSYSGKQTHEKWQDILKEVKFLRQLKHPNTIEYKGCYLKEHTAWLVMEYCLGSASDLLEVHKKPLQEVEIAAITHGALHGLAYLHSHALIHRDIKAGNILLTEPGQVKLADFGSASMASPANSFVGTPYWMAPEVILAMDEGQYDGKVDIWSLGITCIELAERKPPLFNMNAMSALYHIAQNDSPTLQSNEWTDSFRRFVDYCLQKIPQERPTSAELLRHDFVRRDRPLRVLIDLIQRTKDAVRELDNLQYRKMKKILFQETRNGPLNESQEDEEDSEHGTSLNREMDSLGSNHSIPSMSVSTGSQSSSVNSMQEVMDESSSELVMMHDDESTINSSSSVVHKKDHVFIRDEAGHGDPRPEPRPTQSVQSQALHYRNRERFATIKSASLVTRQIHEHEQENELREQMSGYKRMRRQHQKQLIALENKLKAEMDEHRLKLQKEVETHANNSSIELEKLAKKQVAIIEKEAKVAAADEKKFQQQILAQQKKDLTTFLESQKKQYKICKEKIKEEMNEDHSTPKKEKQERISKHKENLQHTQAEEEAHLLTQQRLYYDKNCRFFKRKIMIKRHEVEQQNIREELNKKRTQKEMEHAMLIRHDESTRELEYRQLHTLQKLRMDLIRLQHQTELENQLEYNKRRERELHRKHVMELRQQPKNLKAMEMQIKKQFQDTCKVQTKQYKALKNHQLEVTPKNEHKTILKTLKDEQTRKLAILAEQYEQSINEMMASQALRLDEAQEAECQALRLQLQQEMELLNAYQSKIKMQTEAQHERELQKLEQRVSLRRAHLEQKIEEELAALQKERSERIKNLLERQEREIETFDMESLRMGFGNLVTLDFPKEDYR

[11] = biological target: High affinity nerve growth factor receptor (Homo sapiens) (UniProt P04629); assay: Inhibition of human TRKA at 500 nM by HotSpot assay relative to control
Chain of High affinity nerve growth factor receptor (Homo sapiens) (P04629 33-796 limits assumed): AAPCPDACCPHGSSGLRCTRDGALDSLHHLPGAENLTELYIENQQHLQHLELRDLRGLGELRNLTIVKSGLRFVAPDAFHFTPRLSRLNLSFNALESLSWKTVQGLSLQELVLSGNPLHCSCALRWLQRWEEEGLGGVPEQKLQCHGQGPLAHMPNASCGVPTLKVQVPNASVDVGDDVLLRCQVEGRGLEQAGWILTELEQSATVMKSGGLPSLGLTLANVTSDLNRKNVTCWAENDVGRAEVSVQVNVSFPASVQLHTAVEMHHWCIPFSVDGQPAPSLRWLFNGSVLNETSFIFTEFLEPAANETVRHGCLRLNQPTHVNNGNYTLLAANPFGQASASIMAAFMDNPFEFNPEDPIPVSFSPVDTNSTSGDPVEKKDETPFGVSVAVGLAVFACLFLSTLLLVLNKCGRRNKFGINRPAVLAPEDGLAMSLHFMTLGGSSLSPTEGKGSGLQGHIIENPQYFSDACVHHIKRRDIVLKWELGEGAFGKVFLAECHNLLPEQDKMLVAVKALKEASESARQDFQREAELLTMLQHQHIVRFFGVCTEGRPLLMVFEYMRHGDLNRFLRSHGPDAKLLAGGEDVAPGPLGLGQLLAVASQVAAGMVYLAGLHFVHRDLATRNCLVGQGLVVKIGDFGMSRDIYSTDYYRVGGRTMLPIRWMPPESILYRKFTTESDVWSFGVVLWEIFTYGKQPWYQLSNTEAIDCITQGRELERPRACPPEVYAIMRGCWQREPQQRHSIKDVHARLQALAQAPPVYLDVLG

[12] = biological target: T3, Testis-specific serine/threonine-protein kinase 2 (Homo sapiens) (UniProt Q96PF2); assay: Inhibition of human TSSK2 at 500 nM by HotSpot assay relative to control
T3 sequence (whole entry): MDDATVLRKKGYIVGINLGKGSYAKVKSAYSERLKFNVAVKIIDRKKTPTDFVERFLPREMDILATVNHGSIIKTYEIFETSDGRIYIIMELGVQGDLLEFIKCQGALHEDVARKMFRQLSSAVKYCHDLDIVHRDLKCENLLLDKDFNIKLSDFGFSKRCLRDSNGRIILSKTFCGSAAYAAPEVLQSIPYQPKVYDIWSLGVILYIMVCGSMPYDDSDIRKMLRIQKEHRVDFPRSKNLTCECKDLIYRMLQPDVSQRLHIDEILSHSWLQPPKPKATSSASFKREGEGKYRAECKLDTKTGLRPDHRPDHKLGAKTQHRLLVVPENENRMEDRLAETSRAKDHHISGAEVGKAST

Chain of Serine/threonine-protein kinase B-raf (Homo sapiens) (P15056 whole entry): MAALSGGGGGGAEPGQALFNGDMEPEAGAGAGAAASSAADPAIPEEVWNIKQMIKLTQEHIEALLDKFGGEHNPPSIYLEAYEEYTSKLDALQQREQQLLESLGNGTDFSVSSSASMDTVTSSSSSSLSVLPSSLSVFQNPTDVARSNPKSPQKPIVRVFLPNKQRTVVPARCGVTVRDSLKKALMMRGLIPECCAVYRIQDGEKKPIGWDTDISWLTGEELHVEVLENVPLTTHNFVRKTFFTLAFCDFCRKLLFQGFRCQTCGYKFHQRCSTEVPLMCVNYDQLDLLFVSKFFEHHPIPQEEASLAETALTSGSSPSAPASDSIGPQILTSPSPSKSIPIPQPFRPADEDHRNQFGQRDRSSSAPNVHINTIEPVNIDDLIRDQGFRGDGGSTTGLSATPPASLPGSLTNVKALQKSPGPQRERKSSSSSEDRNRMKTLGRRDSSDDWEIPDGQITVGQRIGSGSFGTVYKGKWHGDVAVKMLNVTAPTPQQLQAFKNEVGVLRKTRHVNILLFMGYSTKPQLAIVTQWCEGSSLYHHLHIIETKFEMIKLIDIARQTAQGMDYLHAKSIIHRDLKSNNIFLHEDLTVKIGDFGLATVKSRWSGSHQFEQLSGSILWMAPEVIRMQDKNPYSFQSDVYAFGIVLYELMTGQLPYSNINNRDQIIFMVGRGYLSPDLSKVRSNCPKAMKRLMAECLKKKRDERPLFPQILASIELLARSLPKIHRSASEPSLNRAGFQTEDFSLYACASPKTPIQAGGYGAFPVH

Structure (SMILES)	inhibition [1] [%]	inhibition [2] [%]	inhibition [3] [%]	inhibition [4] [%]	inhibition [5] [%]	inhibition [6] [%]	inhibition [7] [%]	inhibition [8] [%]	inhibition [9] [%]	inhibition [10] [%]	inhibition [11] [%]	inhibition [12] [%]
Oc1n[nH]c2nnc(-c3c(-c4ccccc4)nn4ccccc34)cc12	3.81	2	3.04	-0.52	0.89	-5.1	-1.18	-2.36	-4.14	4.08	4.28	-1.61
Nc1n[nH]c2nnc(-c3c(-c4ccccc4)nn4ccccc34)cc12	4.35	23.6	0.97	8.64	1.48	-1.32	-0.96	1.29	3.51	-1.15	-1.03	-4.17

Source: ChEMBL document CHEMBL5653615 (J Biol Chem, 2013)
